Measurements reported in patent US11584752B2, “Method for controlled release using mechanical force” (California Institute of Technology, priority 2020, dated 2023).
“Also recorded” adds a separate entry of the source.

Key:
[1] = Thermal stability of Diels-Alder adducts in toluene-d8 (retro-Diels-Alder conversion by 1H NMR); assay type: physicochemical
Text: For example, FIGS. 7A and 7B illustrate that addition of the 3-phenoxy group to the furan moiety leads to a pronounced increase in the thermal stability of the Diels-Alder adduct of many embodiments. Not to be bound by any theory, this effect has been observed previously for cycloadducts derived from 3-alkoxy-furans, and it has been ascribed to a reduction in the energetic penalty for loss of furan aromaticity (as explained, for example in: Boutelle, R. C.; Northrop, B. H. Substituent Effects on the Reversibility of Furan-Maleimide Cycloadditions. J. Org. Chem. 2011, 76, 7994-8002; and Foster, R. W.; et al. Irreversible endo-Selective Diels-Alder Reactions of Substituted Alkoxyfurans: A General Synthesis of endo-Cantharimides. Chemistry 2015, 21, 6107-6114, the disclosures of which are incorporated herein by reference). Accordingly, FIG. 7A illustrates that, […] after 5 h, while the same conditions lead to approximately 46% reversion of the analogous Diels-Alder adduct (±)-216 without the 3-phenoxy substituent. […] Accordingly, in many embodiments, 3-phenoxy, or any similar aryloxy substituent at 3-position of the furan moiety enhances the thermal stability of such mechanophore platforms without any detriment to their mechanochemical activity.
In comparison, as described herein, heating the Diels-Alder adduct comprising a 3-OPh substituted furan moiety at 70° C. under the same conditions results in <2% retro-Diels-Alder conversion, while for the Diels-Alder adduct comprising neither substituent the conversion ˜46% under the same heating conditions.

[2] = Decomposition of model 2-furylcarbinol derivatives in solution at room temperature, followed by NMR and photoluminescence spectroscopy
Text: The generation of hydroxycoumarin 2 in the room temperature solution of furfuryl carbonate 1 in MeCN:MeOH (3:1) was also monitored over time using fluorescence spectroscopy (FIG. 3C).
Furthermore, FIG. 8C illustrates the kinetics of the decomposition of furfuryl carbamates comprising α-methyl, 3-phenoxy, and 5-position substituents according to many embodiments, such as exemplified by 21, and compares them to the furfuryl carbamates without the 3-phenoxy substitution, such as exemplified by furfuryl carbamate 22. More specifically, FIG. 8C provides data from experimental studies, wherein the decompositions of 21 and 22 to generate aminocoumarin 23 were monitored as a function of time using NMR and PL spectroscopy.

[3] = toluene-d8, room temperature, after 132 days

Structure (SMILES): CC(O)C12OC(COC(=O)C(C)(C)Br)(C=C1Oc1ccccc1)C1C(=O)N(CCOC(=O)C(C)(C)Br)C(=O)C12 (racemic) [(±)-29, (2-(2-((2-bromo-2-methylpropanoyl)oxy)ethyl)-7-(1-hydroxyethyl)-1,3-dioxo-6-phenoxy-1,2,3,3a,7,7a-hexahydro-4H-4,7-epoxyisoindol-4-yl)methyl 2-bromo-2-methylpropanoate]
- retro-Diels-Alder conversion ([1]; toluene-d8, 70° C., after 5 h): < 2%
- retro-Diels-Alder conversion ([1]; toluene-d8, 70° C., after 21 h): < 7%
- thermal stability ([1]; toluene-d8, room temperature): stable indefinitely
- retro-Diels-Alder conversion [1, 3]: no reaction is observed

Structure (SMILES): CC(C)(Br)C(=O)OCCc1ccc(OC23C=CC(CO)(O2)C2C(=O)N(CCOC(=O)C(C)(C)Br)C(=O)C23)cc1 (racemic) [(±)-33, 4-((2-(2-((2-bromo-2-methylpropanoyl)oxy)ethyl)-7-(hydroxymethyl)-1,3-dioxo-1,2,3,3a,7,7a-hexahydro-4H-4,7-epoxyisoindol-4-yl)oxy)phenethyl 2-bromo-2-methylpropanoate]
- retro-Diels-Alder conversion ([1]; toluene-d8 (7.7 mM), room temperature, nearly two months): negligible; also recorded: no detectable products
- retro-Diels-Alder conversion ([1]; toluene-d8, 70° C., after 21 h): ~35%

Structure (SMILES): CC(O)[C@@]12C=C[C@@](COC(=O)C(C)(C)Br)(O1)[C@@H]1C(=O)N(CCOC(=O)C(C)(C)Br)C(=O)[C@@H]12 (mixture of isomers) [(±)-216]
- retro-Diels-Alder conversion ([1]; toluene-d8, 70° C., after 5 h): approximately 46%
- retro-Diels-Alder conversion ([1]; toluene-d8, 70° C., after 21 h): nearly quantitative
- thermal stability ([1]; toluene-d8, room temperature): slow, but detectable, reversion
- retro-Diels-Alder conversion [1, 3]: approximately 23%

Structure (SMILES): Cc1cc(=O)oc2cc(OC(=O)OC(C)c3ccc(COC(=O)C(C)(C)Br)o3)ccc12 (centres unmarked) [Compound 1, (5-(1-((((4-methyl-2-oxo-2H-chromen-7-yl)oxy)carbonyl)oxy)ethyl)furan-2-yl)methyl 2-bromo-2-methylpropanoate]
- stability in solvent ([2]; DCM, chloroform, and hexanes): relatively stable
- half-life ([2]; acetonitrile-d3/methanol solution, reaction half-life t1/2 of decomposition, 3:1 (v/v) acetonitrile-d3/methanol, room temperature, from NMR measurements): 1.32 h
- stability in solvent ([2]; acidic and protic solvents): decomposes quickly
- stability in solvent ([2]; chloroform and acetonitrile): relatively stable
- half-life ([2]; water/acetonitrile-d3 solution, half-life of decomposition, water/acetonitrile mixture (water 25% by volume in acetonitrile-d3), room temperature, NMR): ~0.133 h

Structure (SMILES): Cc1cc(=O)oc2cc(NC(=O)OC(C)c3oc(COC(=O)C(C)(C)C)cc3Oc3ccccc3)ccc12 (centres unmarked) [Compound 21, (5-(1-(((4-methyl-2-oxo-2H-chromen-7-yl)carbamoyl)oxy)ethyl)-4-phenoxyfuran-2-yl)methyl pivalate]
- time to full conversion to products ([2]; 3:1 MeCN/MeOH, room temperature): approximately 5 h
- half-life at 19 μM ([2]; MeCN-d3/MeOH solution, half-life for decomposition t1/2, 3:1 MeCN-d3/MeOH, room temperature, NMR, first-order fit): 0.567 h

Structure (SMILES): Cc1cc(=O)oc2cc(NC(=O)OC(C)c3ccc(COC(=O)C(C)(C)C)o3)ccc12 (centres unmarked) [Compound 22, (5-(1-(((4-methyl-2-oxo-2H-chromen-7-yl)carbamoyl)oxy)ethyl)furan-2-yl)methyl pivalate]
- conversion ([2]; 19.6 mM in MeCN-d3:MeOH (3:1), room temperature, after 134 days, 1H NMR): approximately 40%
- decomposition reactivity ([2]; 3:1 MeCN/MeOH, room temperature, same conditions as 21): completely unreactive

Structure (SMILES): Cc1cc(=O)oc2cc(NC(=O)OCc3ccc(Oc4ccc(CCOC(=O)C(C)(C)Br)cc4)o3)ccc12 [Compound 35, 4-((5-((((4-methyl-2-oxo-2H-chromen-7-yl)carbamoyl)oxy)methyl)furan-2-yl)oxy)phenethyl 2-bromo-2-methylpropanoate]
- half-life at 21 mM ([2]; acetonitrile-d3/methanol solution, half-life for consumption t1/2, 3:1 acetonitrile-d3/methanol, room temperature, NMR, 21 mM): 9.3 h
- yield of aminocoumarin released ([2]; acetonitrile/methanol (3:1 v/v), room temperature): nearly quantitative
- half-life ([2]; acetonitrile/methanol solution, half-life of consumption and aminocoumarin generation, acetonitrile/methanol (3:1 v/v), room temperature, 1H NMR and PL): ~10 h

Structure (SMILES): Cc1cc(=O)oc2cc(OC(=O)OCc3ccc(COC(=O)C(C)(C)Br)o3)ccc12 [Compound S2, (5-(((((4-methyl-2-oxo-2H-chromen-7-yl)oxy)carbonyl)oxy)methyl)furan-2-yl)methyl 2-bromo-2-methylpropanoate]
- estimated half-lives for decomposition ([2]; room temperature): several weeks
